Among the data in US5753660A, “Substituted sulfonylalkanoylamino hydroxyethylamino sulfonamide retroviral protease inhibitors” (G. D. Searle & Co., priority 1996, dated 1998) are IC50 and EC50 values, retold here.

One test addresses T1, HIV protease (Human immunodeficiency virus type 1 group M subtype B, UniProt P04585).
T1 construct: HIV protease is diluted in the assay buffer to a final enzyme concentration of 12.3 nanomolar, based on a molecular weight of 10,780
Description: HIV protease enzyme assay. To be noted: HIV protease 12.3 nanomolar; substrate 80 μM; pH 6.4; ambient temperature. The test is classed as biochemical. From the text:
The compounds of the present invention are effective HIV protease inhibitors. Utilizing an enzyme assay as described below, the compounds set forth in the examples herein disclosed inhibited the HIV enzyme. The preferred compounds of the present invention and their calculated IC50 (inhibiting concentration 50%, i.e., the concentration at which the inhibitor compound reduces enzyme activity by 50%) values are shown in Table 14. The enzyme method is described below. The substrate is 2-Ile-Nle-Phe(p-NO2)-Gln-ArgNH2. The positive control is MVT-101 (Miller, M. et al, Science, 246, 1149 (1989)] The assay conditions are as follows:
Assay buffer: 20 mM sodium phosphate, pH 6.4
The above described substrate is dissolved in DMSO, then diluted 10 fold in assay buffer. Final substrate concentration in the assay is 80 μM. HIV protease is diluted in the assay buffer to a final enzyme concentration of 12.3 nanomolar, based on a molecular weight of 10,780.
The final concentration of DMSO is 14% and the final concentration of glycerol is 18%. The test compound is dissolved in DMSO and diluted in DMSO to 10×the test concentration; 10 μl of the enzyme preparation is added, the materials mixed and then the mixture is incubated at ambient temperature for 15 minutes. The enzyme reaction is initiated by the addition of 40 μl of substrate. The increase in fluorescence is monitored at 4 time points (0, 8, 16 and 24 minutes) at ambient temperature. Each assay is carried out in duplicate wells.

The next test has as its system HIV-1. Put plainly: HIV inhibition assay in acutely infected CEM cells (tetrazolium/MTT based). The format is cell-based. The conditions noted are these: Human immunodeficiency virus 1, CCRF-CEM, 168 h, HIV-1 1000 TCID50, MTT, 7 days. As to the method: The effectiveness of various compounds were determined in the above-described enzyme assay and in a CEM cell assay.
The HIV inhibition assay method of acutely infected cells is an automated tetrazolium based calorimetric assay essentially that reported by Pauwles et al, J. Virol. Methods, 20, 309-321 (1988). Assays were performed in 96-well tissue culture plates. CEM cells, a CD4+ cell line, were grown in RPMI-1640 medium (Gibco) supplemented with a 10% fetal calf serum and were then treated with polybrene (2 μug/ml). An 80 μl volume of medium containing 1×10^4 cells was dispensed into each well of the tissue culture plate. To each well was added a 100 μl volume of test compound dissolved in tissue culture medium (or medium without test compound as a control) to achieve the desired final concentration and the cells were incubated at 37° C. for 1 hour. A frozen culture of HIV-1 was diluted in culture medium to a concentration of 5×10^4 TCID50 per ml (TCID50 =the dose of virus that infects 50% of cells in tissue culture), and a 20 μl volume of the virus sample (containing 1000 TCID50 of virus) was added to wells containing test compound and to wells containing only medium (infected control cells). Several wells received culture medium without virus (uninfected control cells). Likewise, the intrinsic toxicity of the test compound was determined by adding medium without virus to several wells containing test compound. In summary, the tissue culture plates contained the following experiments:
In experiments 2 and 4 the final concentrations of test compounds were 1, 10, 100 and 500 μg/ml. Either azidothymidine (AZT) or dideoxyinosine (ddI) was included as a positive drug control. […] DMSO was added to all control wells at an appropriate concentration.
Following the addition of virus, cells were incubated at 37° C. in a humidified, 5% CO2 atmosphere for 7 days. Test compounds could be added on days 0, 2 and 5 if desired. On day 7,post-infection, the cells in each well were resuspended and a 100 μl sample of each cell suspension was removed for assay. A 20 μL volume of a 5 mg/ml solution of 3-(4,5-dimethylthiazol-2-yl)-2,5-diphenyltetrazolium bromide (MTT) was added to each 100 μL cell suspension, and the cells were incubated for 4 hours at […] in a 5% CO2 environment. […] To each sample was added 100 μl of 10% sodium dodecylsulfate in 0.01N HC1 to lyse the cells, and samples were incubated overnight. The absorbance at 590 nm was determined for each sample using a Molecular Devices microplate reader. Absorbance values for each set of wells is compared to assess viral control infection, uninfected control cell response as well as test compound by cytotoxicity and antiviral efficacy.

Usually IC50 stands for the concentration at which inhibition is half-maximal. A higher IC50 goes with a need for much substance. By EC50 is commonly meant the concentration giving half of the maximal effect. A low value points to a more potent agent. For `CC(C)CN(C[C@@H](O)[C@H](Cc1ccccc1)NC(=O)[C@H](C)CS(=O)(=O)CCc1ccccn1)S(=O)(=O)c1ccc2c(c1)OCO2`, 3 nM corresponded to half-maximal inhibition against HIV protease (IC50). Also, a half-maximal response in the test on HIV-1 (EC50) required 6 nM. In turn, `CC(C)CN(C[C@@H](O)[C@H](Cc1ccccc1)NC(=O)[C@H](C)CS(=O)(=O)CC(=O)NCC[N+]1([O-])CCCC1)S(=O)(=O)c1ccc2c(c1)OCO2` [Example 2] showed an IC50 on HIV protease of 10 nM. On HIV protease, `CC(C)CN(C[C@@H](O)[C@H](Cc1ccccc1)NC(=O)[C@H](C)CS(=O)(=O)CCC(=O)N1CCN(C(=O)OC(C)(C)C)CC1)S(=O)(=O)c1ccc2c(c1)OCO2` [Example 3] displayed an IC50 of 4 nM. `CC(C)CN(C[C@@H](O)[C@H](Cc1ccccc1)NC(=O)[C@H](C)CS(=O)(=O)CCC(=O)N1CCNCC1)S(=O)(=O)c1ccc2c(c1)OCO2` [Example 4] gave an IC50 at HIV protease of 4 nM. The same measure, in the same setting: the result for `CC(C)CN(C[C@@H](O)[C@H](Cc1ccccc1)NC(=O)[C@H](C)CS(=O)(=O)CC(=O)NCC[N+]1([O-])CCOCC1)S(=O)(=O)c1ccc2c(c1)OCO2` [Example 5] reads 10 nM.

For the compound `CC(C)CN(C[C@@H](O)[C@H](Cc1ccccc1)NC(=O)[C@H](C)CS(=O)(=O)CCC(=O)N1CCOCC1)S(=O)(=O)c1ccc2c(c1)OCO2` [Example 6], 24 nM corresponded to half-maximal inhibition at HIV protease (IC50). In the test on HIV-1, this compound gave an EC50 of 123 nM. Regarding `CC(C)CN(C[C@@H](O)[C@H](Cc1ccccc1)NC(=O)[C@H](C)CS(=O)(=O)CC(=O)N1CCN(C(=O)OC(C)(C)C)CC1)S(=O)(=O)c1ccc2c(c1)OCO2` [Example 7], the midpoint of inhibition against HIV protease, the IC50, lay at 7 nM. This counts as single-digit nanomolar. In turn, `CC(C)CN(C[C@@H](O)[C@H](Cc1ccccc1)NC(=O)[C@H](C)CS(=O)(=O)CC(=O)N1CCNCC1)S(=O)(=O)c1ccc2c(c1)OCO2` [Example 8] yielded an IC50 against HIV protease of 27 nM.

Consider `CC(C)CN(C[C@@H](O)[C@H](Cc1ccccc1)NC(=O)[C@H](C)CS(=O)(=O)CC(=O)c1ccccc1)S(=O)(=O)c1ccc2c(c1)OCO2` [Example 9], for which, at HIV protease, the IC50 was found to be 4 nM. This compound gave an EC50 in the test with HIV-1 of 39 nM. `CC(C)CN(C[C@@H](O)[C@H](Cc1ccccc1)NC(=O)[C@H](C)CS(=O)(=O)CC(=O)N1CCS(=O)(=O)CC1)S(=O)(=O)c1ccc2c(c1)OCO2` [Example 10] came in with an IC50 at HIV protease of 16 nM.

Regarding `CCOC(=O)CCCSC[C@@H](C)C(=O)N[C@@H](Cc1ccccc1)[C@H](O)CN(CC(C)C)S(=O)(=O)c1ccc2c(c1)OCO2` [Example 11], the IC50 against HIV protease was 22 nM. The IC50 values of the last two compounds are within 1.5-fold of each other. On HIV protease, `CC(C)CN(C[C@@H](O)[C@H](Cc1ccccc1)NC(=O)[C@H](C)CS(=O)(=O)Cc1c[nH]cn1)S(=O)(=O)c1ccc2c(c1)OCO2` [Example 12] came in with an IC50 of 7 nM. In addition, a half-maximal response in the test on HIV-1 (EC50) required 187 nM. In the same order, the values of `CC(C)CN(C[C@@H](O)[C@H](Cc1ccccc1)NC(=O)[C@H](C)CS(=O)(=O)Cc1cc[nH]n1)S(=O)(=O)c1ccc2c(c1)OCO2` [Example 13] are 5 nM and 71 nM. `CC(C)CN(C[C@@H](O)[C@H](Cc1ccccc1)NC(=O)[C@H](C)CS(=O)(=O)Cc1cn[nH]c1)S(=O)(=O)c1ccc2c(c1)OCO2` [Example 14] showed an IC50 against HIV protease of 4 nM. The compound further yielded an EC50 in the test on HIV-1 of 81 nM.

`CC(C)CN(C[C@@H](O)[C@H](Cc1ccccc1)NC(=O)[C@H](C)CS(=O)(=O)Cc1nc2ccccc2[nH]1)S(=O)(=O)c1ccc2c(c1)OCO2` [Example 15]: on HIV protease, the IC50 was determined as 3 nM. The compound also yielded an EC50 in the test on HIV-1 of 47 nM. Turning to `CC(C)CN(C[C@@H](O)[C@H](Cc1ccccc1)NC(=O)[C@H](C)CS(=O)(=O)Cc1cncs1)S(=O)(=O)c1ccc2c(c1)OCO2` [Example 16], the IC50 against HIV protease was 4 nM. The compound further returned an EC50 in the test with HIV-1 of 21 nM. The matching figures for `CC(C)CN(C[C@@H](O)[C@H](Cc1ccccc1)NC(=O)[C@H](C)CS(=O)(=O)C[C@H]1CCCN1)S(=O)(=O)c1ccc2c(c1)OCO2` [Example 17]: 4 nM and 160 nM. `CC(C)CN(C[C@@H](O)[C@H](Cc1ccccc1)NC(=O)[C@H](C)CS(=O)(=O)C[C@@H]1CCCN1)S(=O)(=O)c1ccc2c(c1)OCO2` [Example 18]: on HIV protease, the IC50 was 6 nM. As for `CC(C)CN(C[C@@H](O)[C@H](Cc1ccccc1)NC(=O)[C@H](C)CS(=O)(=O)c1ccccn1)S(=O)(=O)c1ccc2c(c1)OCO2` [Example 19], on HIV protease, the IC50 turned out to be 11 nM. The compound further came in with an EC50 with HIV-1 of 174 nM. On HIV protease, `CC(C)CN(C[C@@H](O)[C@H](Cc1ccccc1)NC(=O)[C@H](C)CS(=O)(=O)CC(CO)CO)S(=O)(=O)c1ccc2c(c1)OCO2` [Example 20] returned an IC50 of 4 nM. This lies in the single-digit nanomolar range.

For `COC1O[C@H](CS(=O)(=O)C[C@@H](C)C(=O)N[C@@H](Cc2ccccc2)[C@H](O)CN(CC(C)C)S(=O)(=O)c2ccc3c(c2)OCO3)[C@@H](O)[C@H]1O` (some centres unmarked) [Example 21], at HIV protease, half-maximal inhibition (IC50) required 9 nM. The same measure, in the same setting: the result for `CC(C)CN(C[C@@H](O)[C@H](Cc1ccccc1)NC(=O)[C@H](C)CSCC(=O)N1CCOCC1)S(=O)(=O)c1ccc2c(c1)OCO2` [Example 22] reads 63 nM. The same measure, in the same setting: the result for `CC(C)CN(C[C@@H](O)[C@H](Cc1ccccc1)NC(=O)[C@H](C)CSCC(=O)N1CCN(C(=O)OC(C)(C)C)CC1)S(=O)(=O)c1ccc2c(c1)OCO2` [Example 23] reads 12 nM. The same measure, in the same setting: the same measure for `CC(C)CN(C[C@@H](O)[C@H](Cc1ccccc1)NC(=O)[C@H](C)CSCC(=O)N1CCSCC1)S(=O)(=O)c1ccc2c(c1)OCO2` [Example 24]: 25 nM. Compound `CC(C)CN(C[C@@H](O)[C@H](Cc1ccccc1)NC(=O)[C@H](C)CS(=O)(=O)C[C@H]1CCCN1C(=O)OCc1ccccc1)S(=O)(=O)c1ccc2c(c1)OCO2` [Example 25] had an IC50 at HIV protease of 6 nM. The EC50 with HIV-1 was found to be 43 nM. For `CC(C)CN(C[C@@H](O)[C@H](Cc1ccccc1)NC(=O)[C@H](C)CSCCC(=O)N1CCN(C(=O)OC(C)(C)C)CC1)S(=O)(=O)c1ccc2c(c1)OCO2` [Example 26], it took 16 nM to reach half-maximal inhibition on HIV protease (IC50). That is a double-digit nanomolar value.

As to `CC(C)CN(C[C@@H](O)[C@H](Cc1ccccc1)NC(=O)[C@H](C)CSCC(=O)NCCN1CCCC1)S(=O)(=O)c1ccc2c(c1)OCO2` [Example 27], at HIV protease, the IC50 stood at 75 nM.
